Several values for one entry are separate records, joined by “and”; a condition that tells them apart may be missing. Identical values can stand only once. Like-named read-outs stand apart in the source and are kept apart here.
Key:
[1] = target: T1, AHR (Homo sapiens, UniProt P35869); test: In vitro assay 1: antagonism in human cell line (AHR transactivation, firefly luciferase reporter, kynurenic acid prestimulated); assay type: cell-based; conditions: AHR Antagonism Human IC50 [M]
T1 construct: U87 MG glioblastoma cells (ATCC #HTB-14) endogenously expressing AHR; endogenous in cells; host or cells: U87 MG glioblastoma cells (ATCC #HTB-14)
T1 sequence (P35869 11-848): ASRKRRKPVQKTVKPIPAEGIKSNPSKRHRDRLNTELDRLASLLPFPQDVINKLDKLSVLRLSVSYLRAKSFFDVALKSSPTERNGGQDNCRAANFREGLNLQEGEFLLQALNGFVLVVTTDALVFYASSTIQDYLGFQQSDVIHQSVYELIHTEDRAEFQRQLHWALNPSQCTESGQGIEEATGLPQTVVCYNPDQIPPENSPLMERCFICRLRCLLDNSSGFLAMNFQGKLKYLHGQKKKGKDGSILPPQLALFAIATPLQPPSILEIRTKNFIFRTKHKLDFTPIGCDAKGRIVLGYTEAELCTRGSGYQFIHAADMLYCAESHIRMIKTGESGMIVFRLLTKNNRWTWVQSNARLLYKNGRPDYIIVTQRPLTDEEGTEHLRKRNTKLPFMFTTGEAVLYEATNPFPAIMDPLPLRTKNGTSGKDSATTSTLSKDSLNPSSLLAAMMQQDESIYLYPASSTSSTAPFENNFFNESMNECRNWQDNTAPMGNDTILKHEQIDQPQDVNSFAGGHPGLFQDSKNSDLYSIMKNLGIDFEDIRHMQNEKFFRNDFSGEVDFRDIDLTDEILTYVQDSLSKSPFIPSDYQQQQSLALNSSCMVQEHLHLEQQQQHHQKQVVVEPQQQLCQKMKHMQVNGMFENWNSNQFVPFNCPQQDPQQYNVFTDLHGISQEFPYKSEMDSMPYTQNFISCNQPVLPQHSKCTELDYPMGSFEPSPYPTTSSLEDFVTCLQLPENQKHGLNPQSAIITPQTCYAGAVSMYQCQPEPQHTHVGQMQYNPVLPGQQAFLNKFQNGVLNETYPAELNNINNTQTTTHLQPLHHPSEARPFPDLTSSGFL
Outline: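 Antagonism is measured against kynurenic acid prestimulation in U87 MG glioblastoma cells carrying stable DRE-luciferase and Renilla reporters. Positive inhibition control: 150 μM kynurenic acid with 5 μM staurosporine. Values are normalized to controls; repeats are averaged or given as medians.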

[2] = target: T2, AHR (Mus musculus, UniProt P30561); test: In vitro assay 3: antagonism in mouse cell line (AHR transactivation, firefly luciferase reporter, kynurenic acid prestimulated); assay type: cell-based
T2 sequence (P30561 1-848 P471L/N533S/M589L): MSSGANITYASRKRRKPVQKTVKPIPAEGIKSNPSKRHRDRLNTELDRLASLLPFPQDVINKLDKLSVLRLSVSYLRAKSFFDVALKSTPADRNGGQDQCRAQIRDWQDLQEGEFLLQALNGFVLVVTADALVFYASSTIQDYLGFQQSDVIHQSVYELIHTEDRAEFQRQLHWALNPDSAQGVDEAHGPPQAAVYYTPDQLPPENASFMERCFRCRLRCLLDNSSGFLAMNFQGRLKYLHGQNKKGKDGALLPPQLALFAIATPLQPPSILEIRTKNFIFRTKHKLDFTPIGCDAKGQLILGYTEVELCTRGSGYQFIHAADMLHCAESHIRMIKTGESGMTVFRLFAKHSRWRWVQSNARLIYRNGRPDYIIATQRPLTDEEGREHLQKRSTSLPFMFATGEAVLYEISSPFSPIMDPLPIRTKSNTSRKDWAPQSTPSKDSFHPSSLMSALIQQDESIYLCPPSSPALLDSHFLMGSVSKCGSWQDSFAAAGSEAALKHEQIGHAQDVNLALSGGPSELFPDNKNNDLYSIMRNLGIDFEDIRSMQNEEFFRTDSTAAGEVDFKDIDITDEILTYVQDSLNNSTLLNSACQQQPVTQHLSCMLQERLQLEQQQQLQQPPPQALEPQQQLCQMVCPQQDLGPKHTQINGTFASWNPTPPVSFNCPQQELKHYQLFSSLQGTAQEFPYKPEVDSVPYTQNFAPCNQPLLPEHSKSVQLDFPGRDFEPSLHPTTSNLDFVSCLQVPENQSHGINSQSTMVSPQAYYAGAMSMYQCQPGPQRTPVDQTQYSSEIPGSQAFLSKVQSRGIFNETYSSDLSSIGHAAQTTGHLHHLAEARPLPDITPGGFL
Outline: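 Kynurenic acid-prestimulated mouse reporter cells; stable AHR-inducible firefly luc construct with DRE sites in promoter. No-agonist wells = positive inhibition ctrl. Luminescence normalized to pos/neg ctrls; n>1 reported as mean or median.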

[3] = mouse Hepa 1c1c7 cells, 200 μM kynurenic acid, 20 hours, read-out: AHR Antagonism Mouse IC50
[4] = Hepa 1c1c7 cells, 200 μM kynurenic acid, 20 hours, firefly luciferase reporter, read-out: AHR Antagonism Mouse IC50

Structure (SMILES) | IC50 [1] [M] | IC50 [2, 3] [nM] | IC50 ([1]; firefly luciferase reporter) [M] | IC50 [2, 4] | IC50 ([2]; read-out: AHR Antagonism Mouse IC50, mouse Hepa 1c1c7 cells, 200 μM kynurenic acid, 20 hours) [nM]
O=C1NCCCCCC1Nc1nc2ccccc2c2nc(-c3cccc(OC(F)(F)F)c3)nn12 (stereo not drawn) [Example 447, 3-({2-[3-(trifluoromethoxy)phenyl][1,2,4]triazolo[1,5-c]quinazolin-5-yl}amino)azocan-2-one] | 2.27e-08 | 11.3 |  |  | 
O=C1NCCNC[C@H]1Nc1nc2c(Cl)cccc2c2nc(-c3cnn(C4CC4)c3)nn12 [Example 966, (6R)-6-{[7-chloro-2-(1-cyclopropyl-1H-pyrazol-4-yl)[1,2,4]triazolo[1,5-c]quinazolin-5-yl]amino}-1,4-diazepan-5-one] |  |  | 9.02e-09 | 9.29 nM | 
Cn1cc(-c2nc3c4c(Br)cccc4nc(N[C@@H]4CCCCNC4=O)n3n2)cn1 [Example 165, (3R)-3-{[10-bromo-2-(1-methyl-1H-pyrazol-4-yl)[1,2,4]triazolo[1,5-c]quinazolin-5-yl]amino}azepan-2-one] | 1.65e-08 | 98.6 |  |  | 
COc1ccc(-c2nc3c4c(C(F)(F)F)cccc4nc(N[C@@H]4CNCCNC4=O)n3n2)cc1 [Example 285, (6R)-6-{[2-(4-methoxyphenyl)-10-(trifluoromethyl)[1,2,4]triazolo[1,5-c]quinazolin-5-yl]amino}-1,4-diazepan-5-one] | 1.36e-06 | 625 |  |  | 
O=C1NCCCC[C@H]1Nc1nc2ccccc2c2nc(-c3cnn(C(F)F)c3)nn12 [Example 534, (3R)-3-({2-[1-(difluoromethyl)-1H-pyrazol-4-yl][1,2,4]triazolo[1,5-c]quinazolin-5-yl}amino)azepan-2-one] | 2.03e-09 | 0.828 |  |  | 
CCn1cc(-c2nc3c4cccc(C#N)c4nc(N[C@@H]4CCCCNC4=O)n3n2)c(C)n1 [Example 763, 2-(1-ethyl-3-methyl-1H-pyrazol-4-yl)-5-{[(3R)-2-oxoazepan-3-yl]amino}[1,2,4]triazolo[1,5-c]quinazoline-7-carbonitrile] | 1.41e-09 | 3.96 |  |  | 
COCCNC(=O)[C@@H](C)Nc1nc2c(Br)cccc2c2nc(-c3ccc(OC)cc3)nn12 [Example 885, N^2-[7-bromo-2-(4-methoxyphenyl)[1,2,4]triazolo[1,5-c]quinazolin-5-yl]-N-(2-methoxyethyl)-D-alaninamide] |  |  | 1.24e-09 | 2.94 nM | 
COc1ccc(-c2nc3c4cccc(Br)c4nc(N[C@H](C)C(=O)NCCN4CCOCC4)n3n2)cc1 [Example 781, N^2-[7-bromo-2-(4-methoxyphenyl)[1,2,4]triazolo[1,5-c]quinazolin-5-yl]-N-[2-(morpholin-4-yl)ethyl]-D-alaninamide] | 1.17e-09 | 2.09 |  |  | 
O=C1NCCCC[C@H]1Nc1nc2c(Br)cccc2c2nc(-c3cnn(CC4CC4)c3)nn12 [Example 826, (3R)-3-({7-bromo-2-[1-(cyclopropylmethyl)-1H-pyrazol-4-yl][1,2,4]triazolo[1,5-c]quinazolin-5-yl}amino)azepan-2-one] |  |  | 1.77e-09 | 2.26 nM | 
CCCCNC(=O)[C@H](CC)Nc1nc2c(Br)cccc2c2nc(-c3ccc(Cl)cc3OC(F)(F)F)nn12 [Example 813, (2S)-2-({7-bromo-2-[4-chloro-2-(trifluoromethoxy)phenyl][1,2,4]triazolo[1,5-c]quinazolin-5-yl}amino)-N-butylbutanamide] |  |  | > 2e-06 | 1920 nM and > 2000 nM | 
O=C1NCCCC[C@H]1Nc1nc2c(C(F)(F)F)cccc2c2nc(-c3cnn(C(F)F)c3)nn12 [Example 736, (3R)-3-({2-[1-(difluoromethyl)-1H-pyrazol-4-yl]-7-(trifluoromethyl)[1,2,4]triazolo[1,5-c]quinazolin-5-yl}amino)azepan-2-one] | 7.84e-10 | 0.669 |  |  | 
Cc1sccc1-c1nc2c3ccccc3nc(N[C@@H]3CCNC3=O)n2n1 [Example 349, (3R)-3-{[2-(2-methylthiophen-3-yl)[1,2,4]triazolo[1,5-c]quinazolin-5-yl]amino}pyrrolidin-2-one] | 5.16e-08 | 11.5 |  |  | 
CCCC[C@H](Nc1nc2ccccc2c2nc(-c3cccc(OC(F)(F)F)c3)nn12)C(N)=O (racemic) [Example 322, N^2-{2-[3-(trifluoromethoxy)phenyl][1,2,4]triazolo[1,5-c]quinazolin-5-yl}-norleucinamide] | 6.42e-08 |  |  |  | 35.7
COc1ccc(-c2nc3c4c(C5CCOCC5)cccc4nc(N[C@@H]4CCCCNC4=O)n3n2)cc1 [Example 397, (3R)-3-{[2-(4-methoxyphenyl)-10-(oxan-4-yl)[1,2,4]triazolo[1,5-c]quinazolin-5-yl]amino}azepan-2-one] | 1.83e-08 | 37.6 |  |  | 
COc1ccc(-c2nc3c4ccccc4nc(NC4CCCCCNC4=O)n3n2)cc1 (stereo not drawn) [Example 433, 3-{[2-(4-methoxyphenyl)[1,2,4]triazolo[1,5-c]quinazolin-5-yl]amino}azocan-2-one] | 1.64e-09 | 0.647 |  |  | 
COc1ccc(-c2nc3c4cccc(Br)c4nc(N[C@@H]4CN(C)CCNC4=O)n3n2)cc1 [Example 995, (6R)-6-{[7-bromo-2-(4-methoxyphenyl)[1,2,4]triazolo[1,5-c]quinazolin-5-yl]amino}-1-methyl-1,4-diazepan-5-one] |  |  | 6.97e-10 | 2.11 nM | 
O=C1NCCCC[C@H]1Nc1nc2ccccc2c2nc(-c3ccccn3)nn12 [Example 124, (3R)-3-{[2-(pyridin-2-yl)[1,2,4]triazolo[1,5-c]quinazolin-5-yl]amino}azepan-2-one] | 2.83e-08 | 54.1 |  |  | 
O=C1NCCCC[C@H]1Nc1nc2ccccc2c2nc(-c3cnccc3C(F)(F)F)nn12 [Example 490, (3R)-3-({2-[4-(trifluoromethyl)pyridin-3-yl][1,2,4]triazolo[1,5-c]quinazolin-5-yl}amino)azepan-2-one] | 4.25e-08 | 50.6 |  |  | 
Cn1ccc(-c2nc3c4cccc(C(F)(F)F)c4nc(N[C@@H]4CCCCNC4=O)n3n2)n1 [Example 735, (3R)-3-{[2-(1-methyl-1H-pyrazol-3-yl)-7-(trifluoromethyl)[1,2,4]triazolo[1,5-c]quinazolin-5-yl]amino}azepan-2-one] | 7.1e-09 | 9.2 |  |  | 
CN1CCNC(=O)[C@H](Nc2nc3c(Br)cccc3c3nc(-c4cnn(C)c4)nn23)C1 [Example 994, (6R)-6-{[7-bromo-2-(1-methyl-1H-pyrazol-4-yl)[1,2,4]triazolo[1,5-c]quinazolin-5-yl]amino}-1-methyl-1,4-diazepan-5-one] |  |  | 2.32e-08 | 25.6 nM | 
O=C1NCCCC[C@@H]1Nc1nc2c(Br)cccc2c2nc(-c3ccc(Cl)cc3OC(F)F)nn12 [Example 576, (3S)-3-({7-bromo-2-[4-chloro-2-(difluoromethoxy)phenyl][1,2,4]triazolo[1,5-c]quinazolin-5-yl}amino)azepan-2-one] | 1.77e-08 | 2.96 |  |  | 

Source: patent US20230113037A1 (Bayer Aktiengesellschaft, priority 2019, published 2023)
